Measured values published in patent US5324728A, “Naphthoic acid derivative” (Fujirebio Inc., priority 1990, dated 1994).
pIC50: −log10 of the molar value.

Assays:
5-lipoxygenase = molecular target: T1, 5-lipoxygenase (Rattus norvegicus, UniProt P12527); test: 5-Lipoxygenase activity-inhibiting action (5-HETE biosynthesis, rat basophil leukemia-1 cell supernatant); format: biochemical
T1 construct: The resulting supernatant liquid was used as an enzymatic solution; endogenous in cells; host or cells: rat basophil leukemia-1 (RBL-1) cells, supernatant after sonication
T1 sequence (P12527 1-673): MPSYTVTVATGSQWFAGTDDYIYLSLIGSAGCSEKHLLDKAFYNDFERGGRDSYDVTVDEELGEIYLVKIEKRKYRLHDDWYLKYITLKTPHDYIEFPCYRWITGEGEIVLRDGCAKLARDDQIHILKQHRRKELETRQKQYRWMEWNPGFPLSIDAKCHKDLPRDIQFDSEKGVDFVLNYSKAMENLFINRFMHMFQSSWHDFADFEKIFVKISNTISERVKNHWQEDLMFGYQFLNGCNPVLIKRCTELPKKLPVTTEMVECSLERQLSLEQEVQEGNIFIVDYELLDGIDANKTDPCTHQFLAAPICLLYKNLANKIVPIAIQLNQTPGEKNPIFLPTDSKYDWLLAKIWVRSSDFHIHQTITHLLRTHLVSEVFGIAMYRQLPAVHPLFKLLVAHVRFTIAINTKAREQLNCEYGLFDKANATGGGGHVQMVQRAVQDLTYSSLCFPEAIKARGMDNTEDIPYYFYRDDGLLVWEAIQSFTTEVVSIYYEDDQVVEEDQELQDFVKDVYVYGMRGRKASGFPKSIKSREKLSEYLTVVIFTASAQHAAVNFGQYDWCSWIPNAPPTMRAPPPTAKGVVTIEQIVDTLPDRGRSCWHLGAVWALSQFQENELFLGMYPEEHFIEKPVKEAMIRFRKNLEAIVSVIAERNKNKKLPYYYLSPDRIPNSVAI
Procedure: 5-Lipoxygenase activity-inhibiting action
Rat basophil leukemia-1 cells were suspended in a 50 mM phosphate buffer solution (PBS) of pH 7.0 containing 1 mM of EDTA, 0.1% of gelatin and 14 μM of indometacin so that the resulting suspension contained 5×10^7 cels cells/ml ml. The suspension was subjected to an ultrasonic treatment and then to centrifugation (10,000G, 20 minutes). The resulting supernatant liquid was used as an enzymatic solution. 10 μl of a test compound solution was added to 460 μl of the enzymatic solution and a reaction was conducted at 37° C. for 5 minutes. Thereto were added 7.4 KBq of ^14 C-arachidonic acid and a 100 mM aqueous calcium chloride solution, and a reaction was conducted at 37° C. for 10 minutes. The reaction mixture was ice-cooled and then adjusted to pH 3 with 1N hydrochloric acid to terminate the reaction. Thereafter, extraction with 5 ml of chloroform was conducted. The extract was subjected to evaporation to dryness in the presence of nitrogen gas, and the residue was dissolved in a 2:1 mixture of chloroform and methanol. The solution was developed by thin-layer chromatography using Kieselgel 60 F254, according to the method of Jakschik, B. A. et al. [Biachen. Biophys. Res. Commun. 95, 103 (1980)]. The radioactivity of 5-hydroxyeicosatetraenoic acid (5-HETE) was measured by a liquid scintillation counter (LSC-900 manufactured by Aroka) to determine the ratio of 5-HETE biosynthesis inhibition of test compound-added group to control group, after which there was determined a concentration of test compound at which the activity of 5-lipoxygenase was inhibited by 50%, i.e. an IC50. The test compound was used in a diluted form by dissolving it in dimethyl sulfoxide. The results are shown in Tables 1, 2 and 3 which appear later.

mast cells = test: Membrane-stabilizing action (mast cell degranulation); format: cell-based; settings: Rattus norvegicus, 10^-4 M
Procedure: Membrane-stabilizing action
This test was conducted according to the method of Schwartz, J. et al. [Int. Arch. Allergy 30, 67 (1966)].
That is, 10 ml each of Hnak's balanced salt solution containing 10 units/ml of heparin was administered to rats intraperitoneally. After gentle massage of the abdomen for 2 minutes, peritoneal exudate cells (PEC) were obtained and washed 3 times with PBS containing 0.1% of bovine serum albumin (BSA). Mast cells in the suspension of PEC were stained with 0.2% of Neutral Red, and PEC were adjusted to a concentration of 4×10^5 mast cells/ml using PBS containing 0.1% of BSA. The cell suspension (50 μl) was incubated with 50 μl of a test compound solution at 37° C. for 5 minutes, then challenged with anti-egg albumin rat serum (50 μl, 1:40) and egg albumin (50 μl, 10 mg/ml) and further incubation was performed for 10 minutes. The reaction mixture was ice-cooled to terminate the reaction. Thereafter the number of mast cells undergoing degranulation was assessed under microscope observation to determine the menbrane-stabilizing action of the test compound.

TXA2 synthetase = molecular target: T2, TXA2 synthetase (Homo sapiens, UniProt P24557); test: TX synthesis-inhibiting action (thromboxane synthetase kit, human platelet microsome); format: biochemical; settings: 3 × 10^-6 M
T2 construct: human platelet microsome fraction; purchased Funakoshi: Eldan Tech; host or cells: human platelet microsome fraction (thromboxane synthetase kit)
T2 sequence (P24557 1-533): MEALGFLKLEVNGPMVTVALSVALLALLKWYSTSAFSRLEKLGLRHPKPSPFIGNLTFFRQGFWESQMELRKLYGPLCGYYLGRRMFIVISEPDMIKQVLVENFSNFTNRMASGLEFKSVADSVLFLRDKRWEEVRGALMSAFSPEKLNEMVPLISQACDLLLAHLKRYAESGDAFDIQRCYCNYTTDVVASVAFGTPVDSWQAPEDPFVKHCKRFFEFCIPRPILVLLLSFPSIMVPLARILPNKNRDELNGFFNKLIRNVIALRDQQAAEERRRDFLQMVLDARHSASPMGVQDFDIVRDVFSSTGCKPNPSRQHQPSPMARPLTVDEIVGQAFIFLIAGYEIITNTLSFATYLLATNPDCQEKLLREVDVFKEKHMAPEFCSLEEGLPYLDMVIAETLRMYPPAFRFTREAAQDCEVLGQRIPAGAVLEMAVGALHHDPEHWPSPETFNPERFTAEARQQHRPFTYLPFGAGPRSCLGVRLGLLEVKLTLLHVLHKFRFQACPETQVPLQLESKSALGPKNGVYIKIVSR
Procedure: TX synthesis-inhibiting action
TXA2 synthetase activity was measured by the use of a thromboxane synthetase kit (Funakoshi: Eldan Tech). That is, 0.97 mg of a human platelet microsome fraction was suspended in 1 m of a 50 mM tris-0.1M sodium chloride buffer solution of pH 7.5, and the resulting suspension was ice-cooled. […] of the suspension was placed in a sample tube and a test compound was added thereto. The resulting mixture was preincubated at 25° C. exactly for 3 minutes. Thereto was added 2μ of an ice-cooled acetone solution containing 0.05 mg/m of PGH2, and the resulting mixture was incubated at 25° C. exactly for 3 minutes. 10μ of a 0.25 mM FeCl2 solution was added to terminate the reaction. The resulting mixture was allowed to stand at room temperature for 15 minutes and then subjected to centrifugation at 1,000 G at 4° C. for 10 minutes. The TXB2 content contained in the supernatant was measured by RIA (thromboxanes B2 [3H] RIA Kit: NEN Research Products). The test compound was dissolved in DMSO or distilled water before use. The test was performed in triplicate or quadruplicate assays.

tracheal chain = test: Histamine antagonism (isolated guinea pig tracheal chain contraction); format: cell-based; settings: Cavia porcellus, 5 min; 10^-5 M test compound; 3×10^-5 M histamine hydrochloride
Procedure: Guinea pigs were sacrificed and the tracheae were isolated. Each trachea was cut open at the center of the tracheal cartilage, and was cut in the vertical direction to separate into individual segments. Three of these segments were combined to form a tracheal chain. The tracheal chain was suspended in a Magnus tube filled with a Tyrode's solution (NaCl: 137 mX, KCl: 2.7 mM, CaCl2 : […], MgCl2 : 1.1 mM, NaHPO4 : 0.4 mM, NaHCO3 : 12.0 mM, glucose: 5.6 mM) kept at 37° C., while applying a load of 0.5 g. A mixed gas consisting of 95% of O2 and 5% of CO2 was constantly passed through the tube, and the contraction of the smooth muscle was recorded on a polygraph (U-228 manufactured by NIPPON DENKI KAGAKU) via an isotonic transducer (TD-112S manufactured by Nihon Koden). Each test compound was incubated for 5 minutes before the addition of 3×10^-5 M of histamine hydrochloride (a product of Wako Pure Chemical Industries, Ltd.).

SMILES	pIC50 (5-lipoxygenase; Table 3)	inhibition at 3 µM (TXA2 synthetase)	pIC50 (5-lipoxygenase; Table 2)	pIC50 (5-lipoxygenase; Table 1)	inhibition at 100 µM (mast cells)	inhibition at 10 µM (tracheal chain)
O=C(NCCN1CCN(CCSC(c2ccc(Cl)cc2)c2ccc(Cl)cc2)CC1)c1cc2cccc(O)c2cc1O [Example 21]	–	–	–	6.60	100%	–
O=C(NCCCCCSCc1cccs1)c1cc2cccc(O)c2cc1O [Example 44, N-[5-(2-thienylmethylthio)pentyl]-3,5-dihydroxy-2-naphthamide]	–	61.8%	–	–	–	–
CC(=O)Oc1cccc2cc(C(=O)NCCN3CCC(OC(c4ccccc4)c4ccccc4)CC3)c(O)cc12 [Example 5, N-[2-[4-(benzhydryloxy)piperidino]ethyl]-5-acetoxy-3-hydroxy-2-naphthamide]	–	–	–	6.39	96.5%	65.4%
CC(=O)Oc1cccc2cc(C(=O)NCCN3CCN(CCSCc4cccs4)CC3)c(O)cc12 [Example 4, N-[2-[4-(thienylmethylthio)ethyl-1-piperazinyl]ethyl]-5-acetoxy-3-hydroxy-2-naphthamide]	–	–	–	6.49	53.7%	–
O=C(NCCN1CCC(OC(c2ccccc2)c2ccccc2)CC1)c1cc2cccc(OCc3cccnc3)c2cc1O [Example 42, N-[2-[4-(benzhydryloxy)piperidino]ethyl]-3-hydroxy-5-(3-pyridylmethoxyl)-2-naphthamide]	–	–	–	5.29	60.1%	–
O=C(NCCN1CCC(OC(c2ccccc2)c2ccccc2)CC1)c1cc2cccc(O)c2cc1O [Example 34, N-[2-[4-(benzhydryloxy)piperidino]ethyl]-3,5-dihydroxy-2-naphthamide]	–	–	–	6.82	41%	64.7%

Now from value to compound, other results behind:

pIC50 (5-lipoxygenase; Table 3)	inhibition at 3 µM (TXA2 synthetase)	pIC50 (5-lipoxygenase; Table 2)	SMILES	pIC50 (5-lipoxygenase; Table 1)	inhibition at 100 µM (mast cells)	inhibition at 10 µM (tracheal chain)
6.52	73.2%	–	CC(=O)Oc1cccc2cc(C(=O)NCCN3CCN(CCSC(c4ccncc4)c4ccc(Cl)cc4)CC3)c(O)cc12 (stereo not drawn) [Example 15]	–	–	–
–	75.6%	6.96	O=C(NCCN1CCC(OC(c2ccccc2)c2ccccc2)CC1)c1cc2cccc(OCc3ccncc3)c2cc1O [Example 43, N-[2-[4-(benzhydryloxy)piperidino]ethyl]-3-hydroxy-5-(4-pyridylmethoxyl)-2-naphthamide]	–	80.7%	48.2%
–	–	6.57	O=C(NCCN1CCC(OC(c2ccccc2)c2ccccc2)CC1)c1cc2cc(O)ccc2cc1O [Example 35, N-[2-[4-(benzhydryloxy)piperidino]ethyl]-3,7-dihydroxy-2-naphthamide]	–	–	67.9%
